According to patent US20170363616A1, “PATTERNED NEUROMUSCULAR JUNCTIONS AND METHODS OF USE” (Los Alamos National Security, LLC, priority 2014, published 2017):

Legend:
[1] = tested on: C2C12 skeletal myoblasts; test: Differentiation of C2C12 myoblasts to myotubes on graphene films or SiO2; assay type: cell-based, mouse
Method: C2C12 skeletal myoblasts (ATCC Cat. No. CRL 1772) were cultured on graphene films or SiO2 in high glucose DMEM supplemented with 10% fetal bovine serum (FBS) and 1% antibiotics. […] Cells were cultured for 5 days and stained with primary antibody MF20 (myosin heavy chain, MHC) overnight at 4° C., followed by goat anti-mouse secondary antibody and the nuclear stain 4′, 6-diamidino-2-phenylindole (DAPI) for 2 hours at 37° C. Cells were imaged with a fluorescent microscope and images were quantified using ImageJ 1.47d.
Fusion index was calculated as the ratio of the number of nuclei in myocytes with two or more nuclei versus the total number of nuclei. Cell density was determined by counting the number of nuclei in a particular area. Statistical analysis was performed using one-way analysis of variance and values are reported as mean±standard error of the mean.

[2] = tested on: NSC-34 motor neuron cells; test: Differentiation of NSC-34 motor neuron cells (neurite outgrowth); assay type: cell-based, mouse; conditions: IGF-1 added to Neurobasal differentiation media
Method: NSC-34 cells (Cellutions, Cat. No. CLU 140) are a hybrid cell line produced by fusion of motor neuron enriched embryonic mouse spinal cord cells with mouse neuroblastoma, resulting in a motor neuron-like cell. NSC-34 cells were grown in high glucose DMEM with 10% FBS and 1% antibiotics. […] In some examples, NSC-34 cells were cultured in Neurobasal medium with 50-100 ng/ml IGF-1. Cells were imaged with a fluorescent microscope and images were quantified using ImageJ 1.47d with the NeuronJ plugin.

[3] = IGF-1 (50 ng/ml) added to differentiation medium, graphene films, vs differentiation medium alone

insulin-like growth factor-1 [IGF-1]
cell density [1, 3]: significantly increased
fusion index [1, 3]: significantly increased
myotube formation [1, 3]: significantly increased
myotube formation ([1]; increasing the amount of IGF-1 in the differentiation medium from 1-500 ng/ml): increased myotube formation
neurite length per neuron [2]: significantly increased
number of neurites per neuron [2]: did not affect
sum of neurite length [2]: significantly increased
